{
  "source": "patent US7901716B2",
  "about": "“Active fraction having anti-cancer and anti-metastasis isolated from leaves and stems of ginseng” (MD Bioalpha Co., Ltd., priority 2002, dated 2011)",
  "method": "In the present experiment, the number of immune cells was measured in co-administration of MB40100, which was expected to reduce the immune inhibition occurring with administration of cyclophosphamide.\n24 hours and 48 hours after administration of cyclophosphamide (250 mg/kg), MB40100 was abdominally administered in mice at the different dosages (10 mg/kg, 20 mg/kg), respectively. After 7 days, the mice were killed to separate bone marrow cells and splenocytes, and then the number of these cells was counted pursuant to the tryphan blue exclusion method.\nPeripheral blood was rapidly gathered from the eyeball distal vein using a heparin-treated capillary glass tube and collected in a K3-EDTA-treated blood-gathering tube, then examined it with an automatic globule analyzer.",
  "data": [
    {"smiles": "O=P1(N(CCCl)CCCl)NCCCO1", "note": "(stereo not drawn) [cyclophosphamide]", "values": [
      {"measurement": "reduction of number of WBC compared with normal mouse", "setting": "cyclophosphamide 250 mg/kg alone", "value": "about 30%"},
      {"measurement": "number of WBC in blood", "setting": "cyclophosphamide 250 mg/kg alone, normal mouse 7800", "value": 5300},
      {"measurement": "number of splenocytes less than normal mouse", "setting": "cyclophosphamide alone", "value": "about 72.8%"},
      {"measurement": "decrease of bone marrow cell density versus normal mouse", "setting": "cyclophosphamide alone, 7 days after", "value": 29.2, "unit": "%"},
      {"measurement": "bone marrow cell density", "setting": "cyclophosphamide alone, 7 days after, normal mouse 41.1×10^6", "value": "29.6×10^6 cells/ml"},
      {"measurement": "number of thrombocytes less than normal mouse", "setting": "cyclophosphamide alone, peripheral blood", "value": "about 56%"}
    ]}
  ]
}
